One data set deals with c-myc i-motif DNA. The data set can be described thus: I-motif DNA binding, UV-visible absorbance. Also on record: species or system human. Conditions: DNA : flavonoid 2 μM : 2 μM, pH 5.5, 25 °C. From the text: I-motifs are four stranded antiparallel cytosine rich DNA sequences capable of forming at telomere and promotor regions of genomic DNA.[41,42] […] Due to the presence of potential i-motif forming sequences in 69% of promoter regions in human oncogenes, they are postulated to play a key role in oncogene expression regulation.[44] VEGF and c-myc i-motif sequences are prevalent in oncogene promotor regions in many cancers including breast cancer and as such their ligands have potential anticancer roles.[45] The natural flavonol, fisetin, is reported to specifically bind to VEGF i-motif DNA and regulate its function by stabilizing its hairpin structure.[31] […] In continuation of our investigation of the effects of Ru metal complexation on the different biological activities of flavonoids, interactions with VEGF and c-myc i-motif DNA were studied using UV-vis spectroscopic techniques. […] However, 2Ru's addition led to a 1 nm hypsochromic shift of VEGF i-motif absorbance maximum from 272 to 271 nm. On the other hand, addition of the 4-oxo flavone (1) and its Ru complex (1Ru) led to minor changes in λmax of both sequences that was hypochromic (5% and 3%) with VEGF and hyperchromic (2% and 5%) in case of c-myc (Fig. 8).
UV-visible absorbance measurements and DNA UV melting studies were performed on a Cary 300 C (Varian USA) UV-visible spectrophotometer. VEGF and c-myc i-motif DNA (5′-3′ sequences ([…]) and ([…]), respectively) were purchased from Sigma-Aldrich (Gillingham, UK) and used without further purification. Na cacodylate buffer (20 mM, pH 5.5) was used for both i-motifs. DNA concentrations were determined by measuring the absorbance at 260 nm after melting using the molar extinction coefficient supplied by the manufacturer. VEGF and c-myc i-motifs were prepared for experiments by diluting with buffer solution, annealed with or without the flavonoid at 95 °C for 5 min then gently cooled to room temperature. The stock solutions of the test compounds (20 mM) were prepared in 100% sterile DMSO. These stocks were then appropriately diluted with HPLC grade water and DMSO levels were maintained below 0.1% in the test concentrations.
UV-visible absorbance measurements and UV melting studies of either free i-motifs (VEGF or c-myc), free flavone (1, 1Ru, 2 or 2Ru) or both i-motif DNA and flavone (2 μM: 2 μM) were recorded using 1.0 cm matched quartz cuvettes. First spectra were recorded in the range of 200–500 nm to determine the relevant wavelength range were no peaks were observed above 320 nm. […] UV-visible absorbance was measured at 25 °C while melting curves were collected at a heating rate of 1 °C min^−1 from 20 to 90 °C. Tm was calculated by non-linear fitting of the sigmoidal curve obtained at 295 nm.

A further data set concerns HUVEC cells. The data set can be described thus: Cytotoxicity on HUVECs, trypan blue exclusion assay. It is filed as cell-based, human. Conditions: 40 μM, 24 h, % of control, p > 0.05 vs control. Here is the method: The biocompatibility of flavones (1 and 2)[30] alongside their ruthenium(II) metal complexes (1Ru and 2Ru) with HUVEC cells was established using the trypan blue exclusion assay. A concentration four times higher (i.e. 40 μM) than the highest concentration used for the tube formation antiangiogenic evaluation study (i.e. 10 μM) was selected for this cytotoxic assay.
Cytotoxic activity of treatments on HUVECs using trypan blue exclusion assay.[55] HUVECs were seeded in 96 well plates at 1 × 10^5 cells per mL and cultured for 24 h. Cells were then treated with either luteolin, the synthesised derivatives at 40 μM or culture medium (control) for 24 h. After 24 h, solutions were removed and cells washed with 100 μL PBS followed by the addition of 50 μL trypsin–EDTA and incubation for 5 min to detach the cells. 50 μL of EGM-2 media was added to the wells. 50 μL aliquots of the cell suspension were mixed with equal volume of trypan blue (TB) 0.2% v/v (prepared from 0.4% TB diluted with PBS) then the cells were counted using a haemocytometer. Number of viable and dead cells were counted manually and % cell viability of each treatment was expressed as % of control using the equation:% Cell Viability = (Cell viability in treatment/Cell viability in control) × 100where cell viability was calculated as follows:Cell Viability = Number of viable cells/Total number of cells(viable and dead).

Data set [1] deals with MDA-MB-231. Nature of the data set: Cell viability, 72 h MTT assay. The format is cell-based, human. Conditions: MDA-MB-231, 72 h MTT, mean ± SEM, n = 3. The protocol:
(§1) The unique chemical features and coordination geometries of metal ions can add several additional binding interactions that can potentially enhance their anticancer properties for example by allowing intercalation and exploitation of their redox potential.[24] […] In that context, coordination of derivative (2) with a Ru(II) metal ligand is a promising approach to further improve its antiproliferative activity.
(§2) MCF-7 and MDA-MB-231 cells were seeded at a density of 4 × 10^4 and 2 × 10^4 cells per mL, respectively, into 96 well plates and incubated to allow the attachment for 24 h. After 24 h, the cells were treated with one of the synthesised derivatives at range of concentrations (0–100 μM) for 67 h. After 67 h, 20 μL of MTT (5 mg mL^−1) solution in PBS was added to each well and the cells were incubated for 5 h. The purple crystals formed were dissolved in 100 μL of DMSO and the plates were read at 560 nm using a SPECTRA max UV spectrometer (Bio-Rad). The data represented are the mean of the three individual experiments.

Data set [2] concerns MCF-7. Nature of the data set: Cell viability, 72 h MTT assay. It is filed as cell-based, human. Conditions: MCF-7, 72 h MTT, mean ± SEM, n = 3. Here is the method:
as §1, §2

Data set [3] relates to MDA-MB-231. The data set can be described thus: Wound healing (migration) 24 h scratch assay. It is filed as cell-based, human. Conditions: for rise in compound 2's migration inhibition activity upon metal coordination: p < 0.05. Here is the method:
(§3) Malignant cell migration is essential for tumour invasion and metastasis.[1] Thus, the ability of the synthetic flavones (1 and 2) and their Ru(II) metal complexes (1Ru and 2Ru) to inhibit the migration of breast cancer cells (MCF-7 and MDA-MB-231) was assessed by an in vitro 24 h scratch assay. Low, sub-cytotoxic concentrations of 1, 10 and 20 μM were used in this evaluation.
(§4) MCF-7 or MDA-MB-231 cells were seeded in 12-well plates at 2 × 10^5 or 1 × 10^5 cells per mL, respectively, and cultured until 70–80% confluency. Afterwards, they were serum-starved (0% serum) for 24 h to inactivate the cell proliferation. A scratch was performed on the cell monolayers using a 200 μL pipette tip. Cells were then washed twice with PBS and treated with complete medium and one of the synthesized derivatives at 1, 10 or 20 μM. […] Images of the scratches were taken immediately after performing the scratch (t = 0 h) and at 24 h (t = 24 h). The area not covered by the cells was quantified using ImageJ software. % of wound closure was calculated using the following equation:100 × ((Area of scratch at t0 − Area of scratch at t24)/Area of scratch at t0)

Data set [4] has as its system MCF-7. The data set can be described thus: Wound healing (migration) 24 h scratch assay. It is filed as cell-based, human. Here is the method:
as §3, §4

Molecules are shown by their SMILES.

On to `Cc1ccc(C(C)C)cc1.O=c1cc(-c2ccc(Cl)cc2)oc2cc(O)cc([O-])c12.[Cl-].[Ru+2]` [1Ru, chlorido [(5-oxo-κO)-7-hydroxy-2-(4′-chlorophenyl)-4H-chromen-4-onato-κO] (η^6-p-cymene)ruthenium(II)], for which the “hyperchromic shift (increase) at absorbance maximum λmax” value in the data set with c-myc i-motif DNA is 5%. Besides, the “Cell viability of HUVECs” value with HUVEC cells was approximately 100%. Besides, the figures for the IC50 in the data set with MDA-MB-231 [1] and in the data set on MCF-7 [2] were more than 100 µM and 66.2 ± 5 µM, respectively. For the same molecule, in the data set with MDA-MB-231 [3] (MDA-MB-231, 1, 10, 20 μM, 24 h), the “effect on the migration” value is on record as “neither showed any effect”. For the same molecule, the migration inhibition in the data set with MCF-7 [4] (MCF-7, 1 μM) stood at 50%; in the data set with MCF-7 [4] (MCF-7, 10 μM), 42%; in the data set on MCF-7 [4] (MCF-7, 20 μM) it was 41%.

Regarding `Cc1ccc(C(C)C)cc1.[Cl-].[O-]c1cc(O)cc2oc(-c3ccc(Cl)cc3)cc(=S)c12.[Ru+2]` [2Ru, chlorido [(5-oxo-κO)-7-hydroxy-2-(4′-chlorophenyl)-4H-chromen-4-thionato-κO] (η^6-p-cymene)ruthenium(II)], in the data set on c-myc i-motif DNA, the “hyperchromic shift (increase) at absorbance maximum λmax” value worked out at 8%. Also, the “Cell viability of HUVECs” value in the data set on HUVEC cells is listed as approximately 100%. For the same molecule, the IC50 in the data set on MDA-MB-231 [1] and in the data set with MCF-7 [2] was more than 100 µM throughout. The migration inhibition in the data set with MDA-MB-231 [3] (MDA-MB-231, 1 μM, 24 h) worked out at 47%; in the data set on MDA-MB-231 [3] (MDA-MB-231, 10 μM, 24 h) it was 44%; with MDA-MB-231 [3] (MDA-MB-231, 20 μM, 24 h), 36%; in the data set on MCF-7 [4] (MCF-7, 1 μM), 52%; in the data set with MCF-7 [4] (MCF-7, 10 μM) it was 49%; with MCF-7 [4] (MCF-7, 20 μM), 55%. Also, the “rise in compound 2's migration inhibition activity upon metal coordination” value came to 4% in the data set on MDA-MB-231 [3] (MDA-MB-231, 1 μM) and 7% with MDA-MB-231 [3] (MDA-MB-231, 20 μM).

(Values after PMC9945865, “Anticancer evaluation of new organometallic ruthenium(II) flavone complexes” (RSC Medicinal Chemistry, 2022).)
